Legend:
K-562 = assay: Inhibition of cells growth by colorimetric assay (SRB), K-562; assay type: cell-based; conditions: K-562, SRB, 48 hours exposure
Outline: (§1)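 48 h SRB cytotoxicity assay; compound range 10–10^−8 μg/ml; seeding 5×10^3 cells/well, 18 h pre-attachment; OD 490 nm; GI, TGI, LC from triplicate means ± SD.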

A-549 [1] = assay: Inhibition of cells growth by colorimetric assay (SRB), A-549; assay type: cell-based; conditions: A-549, SRB, 48 hours exposure
Outline: as §1

SK-MEL-28 = assay: Inhibition of cells growth by colorimetric assay (SRB), SK-MEL-28; assay type: cell-based; conditions: MEL-28, SRB, 48 hours exposure
Outline: as §1

HT-29 [2] = assay: Inhibition of cells growth by colorimetric assay (SRB), HT-29; assay type: cell-based; conditions: SRB, 48 hours exposure
Outline: as §1

LoVo = assay: Inhibition of cells growth by colorimetric assay (SRB), LoVo; assay type: cell-based; conditions: LOVO, SRB, 48 hours exposure
Outline: as §1

LoVo-Dox = assay: Inhibition of cells growth by colorimetric assay (SRB), LoVo-Dox; assay type: cell-based; conditions: SRB, 48 hours exposure
Outline: as §1

DU-145 [3] = assay: Inhibition of cells growth by colorimetric assay (SRB), DU-145; assay type: cell-based; conditions: SRB, 48 hours exposure
Outline: as §1

LNCaP = assay: Inhibition of cells growth by colorimetric assay (SRB), LNCaP; assay type: cell-based; conditions: LNCAP, SRB, 48 hours exposure
Outline: as §1

SK-BR-3 = assay: Inhibition of cells growth by colorimetric assay (SRB), SK-BR-3; assay type: cell-based; conditions: SK-BR3, SRB, 48 hours exposure
Outline: as §1

IGROV-1 = assay: Inhibition of cells growth by colorimetric assay (SRB), IGROV-1; assay type: cell-based; conditions: IGROV, SRB, 48 hours exposure
Outline: as §1

IGROV-ET = assay: Inhibition of cells growth by colorimetric assay (SRB), IGROV-ET; assay type: cell-based; conditions: IGROV-ET, SRB, 48 hours exposure
Outline: as §1

SK-OV-3 = assay: Inhibition of cells growth by colorimetric assay (SRB), SK-OV-3; assay type: cell-based; conditions: SRB, 48 hours exposure
Outline: as §1

PANC-1 = assay: Inhibition of cells growth by colorimetric assay (SRB), PANC-1; assay type: cell-based; conditions: SRB, 48 hours exposure
Outline: as §1

HMEC1 = assay: Inhibition of cells growth by colorimetric assay (SRB), HMEC1; assay type: cell-based; conditions: SRB, 48 hours exposure
Outline: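 Human cancer and endothelial lines are seeded at 5×10^3 cells per well and, after 18 h, treated for 48 h with compound dissolved in DMSO/EtOH/PBS (0.5:0.5:99) at 10 to 10^−8 μg/ml. Cell mass is quantified by SRB staining (OD 490 nm), and growth inhibition, total growth inhibition and cell kill are calculated from triplicate wells.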

P-388 = assay: Inhibition of cell growth by counting cells, P-388; assay type: cell-based, mouse; conditions: Mus musculus, P388, 72 h; three days of incubation; read-out: IC50 (molar) P-388
Outline: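 Mouse P-388 lymphoid neoplasm suspension cells seeded at 1×10^4 cells/well in EMEM 5% FCS containing graded sample concentrations, in duplicate alongside drug-free growth controls. Cells counted by Coulter counter; % growth vs untreated gives dose-response curves, IC50 = concentration producing 50% growth inhibition.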

A-549 [4] = assay: Inhibition of cell growth by counting cells, A-549; assay type: cell-based, human; conditions: Homo sapiens, A549, 72 h; three days of incubation; read-out: IC50 (molar) A-549
Outline: (§2)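 Monolayer lines were plated at 1×10^4 cells per well with compound in medium containing 5% FCS. After a 3-day incubation at 37° C, crystal violet staining gave an approximate IC50, and cell counting of duplicate wells gave the dose-response IC50.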

HT-29 [5] = assay: Inhibition of cell growth by counting cells, HT-29; assay type: cell-based, human; conditions: Homo sapiens, HT-29, 72 h; three days of incubation; read-out: IC50 (molar) HT-29
Outline: as §2

MEL-28 = assay: Inhibition of cell growth by counting cells, MEL-28; assay type: cell-based, human; conditions: Homo sapiens, SK-MEL-28, 72 h; three days of incubation; read-out: IC50 (molar) MEL-28
Outline: as §2

DU-145 [6] = assay: Inhibition of cell growth by counting cells, DU-145; assay type: cell-based, human; conditions: Homo sapiens, DU-145, 72 h; three days of incubation; read-out: IC50 (molar) DU-145
Outline: as §2

Excerpt for Heart: (§3) Toxicity was asssessed by the methods reported in Toxicology in Vitro, 15 (2001) 571-577, J. Luber Narod et al.: “Evaluation of the use of in vitro methodolodies as tools for screening new compounds for potential in vivo toxicity”.
Excerpt for Kidney: as §3
Excerpt for Liver: as §3
Excerpt for Myelo: as §3
Excerpt for Skeletal: as §3

COc1cc2c(cc1OC(=O)Cc1cc(=O)oc3cc(N(C)C)ccc13)CCN[C@]21CS[C@@H]2c3c(OC(C)=O)c(C)c4c(c3[C@H](COC1=O)N1C2[C@H]2c3c(cc(C)c(OC)c3OC(=O)Cc3cc(=O)oc5cc(N(C)C)ccc35)C[C@@H]([C@@H]1O)N2C)OCO4 (some centres unmarked) [Compound 77]
K-562 TGI (K-562): 7.77E-10
GI50 (K-562; read-out: K-562 GI50): 0.277 nM
LC50 (50% cell killing) (K-562; read-out: K-562 LC50): 37.9 nM
TGI A-549 (A-549 [1]): 3.64E-09
GI50 (A-549 [1]; read-out: GI50 A-549): 2.11 nM
LC50 (concentration for 50% cell killing) (A-549 [1]; read-out: A-549 LC50): 6.29 nM
MEL-28 TGI (SK-MEL-28): 5.06E-10
GI50 (SK-MEL-28; read-out: MEL-28 GI50): 0.266 nM
CC50 (SK-MEL-28; read-out: MEL-28 LC50): 0.962 nM
HT-29 TGI (HT-29 [2]; HT-29): 9.52E-09
GI50 (HT-29 [2]; HT-29, read-out: HT-29 GI50): 2.96 nM
LC50 (concentration for 50% cell killing) (HT-29 [2]; Homo sapiens, HT-29, 48 h, read-out: HT-29 LC50, HT-29): 10100 nM
LOVO TGI (LoVo): 3.96E-09
GI50 (LoVo; read-out: LOVO GI50): 1.91 nM
LC50 (concentration for 50% cell killing) (LoVo; read-out: LOVO LC50): 8.21 nM
CC50 (LoVo-Dox; Homo sapiens, 48 h, read-out: LOVO-DOX LC50, LOVO-DOX): 10100 nM
LOVO-DOX TGI (LoVo-Dox; LOVO-DOX): 9.39E-08
GI50 (LoVo-Dox; LOVO-DOX, read-out: LOVO-DOX GI50): 31.3 nM
DU-145 TGI (DU-145 [3]; DU-145): 1.45E-09
GI50 (DU-145 [3]; DU-145, read-out: DU-145 GI50): 0.488 nM
CC50 (DU-145 [3]; Homo sapiens, DU-145, 48 h, read-out: DU-145 LC50, DU-145): 10100 nM
LNCAP TGI (LNCaP): 6.12E-10
GI50 (LNCaP; read-out: LNCAP GI50): 0.328 nM
CC50 (LNCaP; read-out: LNCAP LC50): 1.58 nM
SK-BR3 TGI (SK-BR-3): 2.04E-09
GI50 (SK-BR-3; read-out: SK-BR3 GI50): 0.475 nM
CC50 (SK-BR-3; read-out: SK-BR3 LC50): 8.12 nM
IGROV TGI (IGROV-1): 1.53E-09
GI50 (IGROV-1; read-out: IGROV GI50): 0.454 nM
CC50 (IGROV-1; read-out: IGROV LC50): 8.82 nM
IGROV-ET TGI (IGROV-ET): 9.57E-08
GI50 (IGROV-ET; read-out: IGROV-ET GI50): 4.22 nM
CC50 (IGROV-ET; read-out: IGROV-ET LC50): 303 nM
GI50 (SK-OV-3; Homo sapiens, SK-OV-3, 48 h, SK-OV3, read-out: SK-OV3 GI50): 2.55 nM
LC50 (SK-OV-3; Homo sapiens, SK-OV-3, 48 h, read-out: SK-OV3 LC50, SK-OV3): 10100 nM
SK-OV3 TGI (SK-OV-3; SK-OV3): 7.76E-09
GI50 (PANC-1; Homo sapiens, PANC-1, 48 h, PANC-1, read-out: PANC-1 GI50): 3.27 nM
LC50 (concentration for 50% net cell kill) (PANC-1; Homo sapiens, PANC-1, 48 h, read-out: PANC-1 LC50, PANC-1): 6300 nM
PANC-1 TGI (PANC-1; PANC-1): 9.14E-09
HMEC-1 TGI (HMEC1; HMEC-1): 5.28E-08
GI50 (HMEC1; HMEC-1, read-out: HMEC-1 GI50): 5.28 nM
LC50 (HMEC1; Homo sapiens, HMEC-1, 48 h, read-out: HMEC-1 LC50, HMEC-1): 10100 nM
Toxicity Data Liver (Liver): 9.53E-09
Toxicity Data Heart (Heart): 1.64E-08
Toxicity Data Myelo (Myelo): 8.52E-09
Toxicity Data Skeletal (Skeletal): 2.20E-09
Toxicity Data Kidney (Kidney): 3.22E-09

COc1cc2c(cc1OC(=O)OC(C)(C)C)CCN[C@]21CS[C@@H]2c3c(OC(C)=O)c(C)c4c(c3[C@H](COC1=O)N1C2[C@H]2c3c(cc(C)c(OC)c3OC(=O)OC(C)(C)C)C[C@@H]([C@@H]1O)N2C)OCO4 (some centres unmarked) [Compound 86]
IC50 (P-388): 0.52 nM
IC50 (A-549 [4]): 0.52 nM
IC50 (HT-29 [5]): 0.52 nM
IC50 (MEL-28): 0.52 nM
IC50 (DU-145 [6]): 0.52 nM
Toxicity Data Liver (Liver): 1.47E-08
Toxicity Data Heart (Heart): 8.16E-08
Toxicity Data Myelo (Myelo): 8.35E-08
Toxicity Data Skeletal (Skeletal): 3.88E-08
Toxicity Data Kidney (Kidney): 1.37E-08

COc1cc2c(cc1OC(=O)C(F)(F)F)CCN[C@]21CS[C@@H]2c3c(OC(C)=O)c(C)c4c(c3[C@H](COC1=O)N1C2[C@H]2c3c(cc(C)c(OC)c3O)C[C@@H]([C@@H]1O)N2C)OCO4 (some centres unmarked) [Compound 104]
IC50 (P-388): 0.117 nM
IC50 (A-549 [4]): 0.583 nM
IC50 (HT-29 [5]): 0.583 nM
IC50 (MEL-28): 0.583 nM
IC50 (DU-145 [6]): 0.583 nM
Toxicity Data Liver (Liver): 4.16E-09
Toxicity Data Heart (Heart): 3.44E-09
Toxicity Data Myelo (Myelo): 1.93E-08
Toxicity Data Skeletal (Skeletal): 4.10E-07
Toxicity Data Kidney (Kidney): 2.67E-09

COc1cc2c(cc1O)CCN[C@]21CS[C@@H]2c3c(OC(=O)/C=C/c4ccccc4)c(C)c4c(c3[C@H](COC1=O)N1C2[C@H]2c3c(cc(C)c(OC)c3O)C[C@@H]([C@@H]1O)N2C)OCO4 (some centres unmarked) [Compound 161]
IC50 (P-388): 0.118 nM
IC50 (A-549 [4]): 0.118 nM
IC50 (HT-29 [5]): 0.118 nM
IC50 (MEL-28): 0.118 nM
IC50 (DU-145 [6]): 0.118 nM
Toxicity Data Liver (Liver): 8.58E-09
Toxicity Data Heart (Heart): 1.13E-08
Toxicity Data Myelo (Myelo): 2.27E-08
Toxicity Data Skeletal (Skeletal): 1.65E-08
Toxicity Data Kidney (Kidney): 2.60E-09

— patent publication US7759345B2, “Antitumoral derivatives of ET-743” (priority 2001, dated 2010)
